pIC50: −log10 of the molar value.
Tests used:
MES-SA = experiment: Cell viability determination (MTT), MES-SA; assay type: cell-based; conditions: Homo sapiens, leiomyosarcoma, 48 hour incubation, read-out: Drug concentrations for 50% cell viability (IC50)
From the text: (§1) Cell Culture: A549, DLD1, SW480, LOVO, HT-29, Hela, U-20S, MES-SA, SK-MEL-28, Panc-1, DU-145, CNE, U251, Eca-109, MGC80-3, QGY-7701, BEL-7404, PLC/PRF/5, Huh-7, and SGC-7901 cells were maintained in Dulbecco's Modified Eagle Medium (DMEM) (imported from Invitrogen, Carlsbad, Calif., USA) supplemented with 10% fetal bovine serum (FBS) (Si Ji Qing, Hangzhou, China) and 1% penicillin/streptomycin/amphotericin B (imported from Invitrogen, Carlsbad, Calif., USA).
(§2) Cell Viability Determination: Popular MTT method (Archives of Biochemistry and Biophysics, 1993, 303: 474-482) was used to screen the in vitro effects of the invented drugs. Briefly, 5000 to 10000 cells were inoculated per well in a 96-well plate. After overnight incubation, drug was added to the wells at final concentration of 10 μM, […], 2.5 μM, 1.25 μM, or 1 μM, 0.75 μM, 0.5 μM and 0.25 μM in complete culture medium. Each dose level covered 4 equivalent wells. After 48 hour incubation, one tenth volume of 5 mg/mL MTT (thiazolyl blue tetrazolium bromide, Sigma-Aldrich) stock solution was added, and incubation was continued for 2 hours. Then medium was removed and 100 μL of isopropanol solution comprising 86% isopropanol, 4% aqueous 1 N HCl and 10% aqueous SDS solution (10% in concentration) was added. The absorbance of each well at 570 nm wavelength was measured by a micro-plate reader after gentle shaking for 20 minutes. Drug concentrations of 50% cell viability (IC50) were calculated by LOGIT method.

[1] = Metabolism in biological fluid (human whole blood, cancer cell lysate, liver microsomes, mouse oral uptake), HPLC; assay type: in vitro ADME; conditions: liver microsomes or mouse oral uptake system, 20 μM, 37° C.
Method: Second, a major metabolite found after incubation of compound I, III, IV, VI or XIII in biological fluid, such as human whole blood, or cancer cell lysate, or liver microsomes, or mouse oral uptake system, is compound XII (FIG. 3). Similarly, a major metabolite found after incubation of compound V, VII or XIV in biological fluid is 2-(1-hydroxy-n-propyl)-naphtho[2,3-b]furan-4,9-dione (data not shown). Reduction of the position 2 substituent carbonyl group is part of quinone redox reaction as evidenced by the β-lapachone effect on the formation of compound XII in the compound XIII incubation mixture of human whole blood (part D of FIG. 3). The possible reaction mechanism is proposed as shown in scheme 7, in which the two electron reduction could be NQ01 catalyzed reduction or two successive cytochrome b5 reductase or p450 reductase catalyzed reaction. As substrate of these enzymes, β-lapachone could compete for the two electron or single electron reaction and thus reduced formation of the metabolism product.
Crystalline or amorphous solid of compound was mixed with excipient and suspended in 0.5% carboxymethylcellulose (CMC) solution in a mortar. Then the mixture was orally administered into ICR mouse at the predetermined dosage. At the predetermined time point, blood was drawn from the mouse and stored in the vial containing heparin. The blood samples were centrifuged at 6,000 rpm for 10 min, and plasmas were separated. To each plasma sample, 9 times volume of acetonitrile/methyl trifluoromethanesulfonate (1000:1) or acetonitrile/concentrated HCl (1000:1) was added. The resulting mixtures were vortexed and incubated in dry ice for 30 minutes or in −20° C. freezer for 3 hours, then centrifuged, and supernatants were separated for HPLC analysis using gradient B.
The biological systems for in vitro metabolism study include: human whole blood stabilized with sodium citrate; cancer cell lysate (obtained using freeze-thaw method, 10 mg/ml in protein concentration for use); liver microsomes with NADPH generation system (prepared according to the protocol provided by iPhase Pharma, Beijing, China);
10 mM of a compound of formula I or its analog or compound XIII in DMSO (however, compound VI was in DMF) was added into the biological system to a final concentration of 20 μM. The mixtures were incubated at 37° C. for predetermined time. To each sample, then 9 times volume of acetonitrile was added. The resulting mixtures were vortexed and incubated in dry ice for 30 minutes or in −20° C. freezer for 3 hours, then centrifuged, and supernatants were separated for HPLC analysis using gradient B.

SW480 = experiment: Cell viability determination (MTT), SW480; assay type: cell-based; conditions: Homo sapiens, SW480, colorectal cancer, 48 hour incubation, read-out: Drug concentrations for 50% cell viability (IC50)
From the text: as §1, §2

U251 = experiment: Cell viability determination (MTT), U251; assay type: cell-based; conditions: Homo sapiens, U-251, U251, glioma, 48 hour incubation, read-out: Drug concentrations for 50% cell viability (IC50)
From the text: as §1, §2

Eca-109 = experiment: Cell viability determination (MTT), Eca-109; assay type: cell-based; conditions: Homo sapiens, Eca-109, esophageal cancer, 48 hour incubation, read-out: Drug concentrations for 50% cell viability (IC50)
From the text: as §1, §2

QGY-7701 = experiment: Cell viability determination (MTT), QGY-7701; assay type: cell-based; conditions: QGY7701, QGY-7701, liver cancer, 48 hour incubation, read-out: Drug concentrations for 50% cell viability (IC50)
From the text: as §1, §2

Hela = experiment: Cell viability determination (MTT), Hela; assay type: cell-based; conditions: Homo sapiens, cervical cancer, 48 hour incubation, read-out: Drug concentrations for 50% cell viability (IC50)
From the text: as §1, §2

Panc-1 = experiment: Cell viability determination (MTT), Panc-1; assay type: cell-based; conditions: Homo sapiens, Panc-1, pancreatic cancer, 48 hour incubation, read-out: Drug concentrations for 50% cell viability (IC50)
From the text: as §1, §2

CNE = experiment: Cell viability determination (MTT), CNE; assay type: cell-based; conditions: Homo sapiens, nasopharyngeal cancer, 48 hour incubation, read-out: Drug concentrations for 50% cell viability (IC50)
From the text: as §1, §2

A549 = experiment: Cell viability determination (MTT), A549; assay type: cell-based; conditions: Homo sapiens, A549, lung cancer, 48 hour incubation, read-out: Drug concentrations for 50% cell viability (IC50)
From the text: as §1, §2

MGC80-3 = experiment: Cell viability determination (MTT), MGC80-3; assay type: cell-based; conditions: Homo sapiens, MGC-803, MGC80-3, stomach cancer, 48 hour incubation, read-out: Drug concentrations for 50% cell viability (IC50)
From the text: as §1, §2

U-20S = experiment: Cell viability determination (MTT), U-20S; assay type: cell-based; conditions: osteosarcoma, 48 hour incubation, read-out: Drug concentrations for 50% cell viability (IC50)
From the text: as §1, §2

SK-MEL-28 = experiment: Cell viability determination (MTT), SK-MEL-28; assay type: cell-based; conditions: Homo sapiens, SK-MEL-28, malignant melanoma, 48 hour incubation, read-out: Drug concentrations for 50% cell viability (IC50)
From the text: as §1, §2

LOVO = experiment: Cell viability determination (MTT), LOVO; assay type: cell-based; conditions: Homo sapiens, colorectal cancer, 48 hour incubation, read-out: Drug concentrations for 50% cell viability (IC50)
From the text: as §1, §2

## CC(=O)Oc1c2ccccc2c(OC(=O)CNC(=O)OC(C)(C)C)c2oc(C(C)=O)cc12 [compound IV, 2-acetyl-4-acetoxy-9-[(tert-butoxycarbonyl)amino]acetoxy-naphtho[2,3-b]furan]
MES-SA
  pIC50: 6.38
[1]
  Major metabolite found after incubation in biological fluid: compound XII
SW480
  pIC50: 6.04
U251
  pIC50: 5.94
Eca-109
  pIC50: 5.79
QGY-7701
  pIC50: 5.49
Hela
  pIC50: 6.07
Panc-1
  pIC50: 6.06
CNE
  pIC50: 5.88
A549
  pIC50: 6.22
MGC80-3
  pIC50: 5.91
U-20S
  pIC50: 6.00 to 6.12
SK-MEL-28
  pIC50: 6.30 to 6.60
LOVO
  pIC50: 5.71
